In US20260015360A1 (MOMA Therapeutics, Inc., priority 2023, published 2026):

What was measured:
[1] = system: DLD1 BRCA2 (−/−) cells; experiment: DLD1 viability assay (CellTiter-Glo, 7 days), DLD1 BRCA2 (−/−); type: cell-based; conditions: Homo sapiens, DLD-1, 168 h, read-out: Viability IC50 (μM) DLD1 BRCA2 null
Protocol: (§1) The seeding densities are pre-determined from the growth curve kinetics performed to ensure log linear phase of cell growth for these 2 cell lines. These assay plates are then placed in the incubator at 37° C., 5% CO2, relative humidity>90% for a few hours before addition of test compounds. Compounds are dispensed using the Tecan HPD300 or Echo based on the plate map in the appropriate wells of the 384-well plates. […] After addition of the test compounds, the plates are incubated at 37° C., 5% CO2, relative humidity>90% for 7 days. CellTiter-Glo (Promega Cat. No. G7573), ATP detection reagent is prepared according to manufacturer's specifications. Cell assay plates are removed from incubator and bring to room temperature (RT) by letting them sit at bench top for at least 15 min. Using the MultiDrop liquid handler or a multichannel pipette, 35 μL/well of CTG is added and the plates are then placed shakes for 5 seconds, RT. These plates are then incubated for 30 minutes in the dark at RT before measuring luminescence using Spectramax/Enspire/Ensight/Envision/PheraSTAR.

[2] = system: DLD1 WT cells; experiment: DLD1 viability assay (CellTiter-Glo, 7 days), DLD1 WT; type: cell-based; conditions: Homo sapiens, DLD-1, 168 h
Protocol: as §1

SMILES | IC50 [1] [µM] | IC50 [2] [µM]
COc1cnc(Cl)cc1-c1cc(C)ncc1C(=O)Nc1nc2ncc(C3=CCC(O)(C(F)F)CC3)nc2s1 (centres unmarked) [Example 396, 2′-chloro-N-(6-(4-(difluoromethyl)-4-hydroxycyclohex-1-en-1-yl)thiazolo[4,5-b]pyrazin-2-yl)-5′-methoxy-6-methyl-[4,4′-bipyridine]-3-carboxamide] | 0.001 to 0.1 | > 10
COc1cnc(Cl)cc1-c1cc(C)ncc1C(=O)Nc1nc2ncc(C3CCC(OC(F)F)CC3)nc2s1 (centres unmarked) [Example 398, 2′-chloro-N-(6-(4-(difluoromethoxy)cyclohexyl)thiazolo[4,5-b]pyrazin-2-yl)-5′-methoxy-6-methyl-[4,4′-bipyridine]-3-carboxamide] | 0.001 to 0.1 | > 10
COc1cnc(Cl)cc1-c1cc(C)ncc1C(=O)Nc1nc2ncc(C3=CCC(OC(F)F)CC3)nc2s1 (centres unmarked) [Example 405, 2′-chloro-N-(6-(4-(difluoromethoxy)cyclohex-1-en-1-yl)thiazolo[4,5-b]pyrazin-2-yl)-5′-methoxy-6-methyl-[4,4′-bipyridine]-3-carboxamide] | 0.001 to 0.1 | > 10
COc1cnc(Cl)cc1-c1cc(C)ncc1C(=O)Nc1nc2ncc(C3=CCC(C)(C#N)CC3)nc2s1 (centres unmarked) [Example 407, 2′-chloro-N-(6-(4-cyano-4-methylcyclohex-1-en-1-yl)thiazolo[4,5-b]pyrazin-2-yl)-5′-methoxy-6-methyl-[4,4′-bipyridine]-3-carboxamide] | 0.001 to 0.1 | > 10
COc1cnc(Cl)cc1-c1cc(C)ncc1C(=O)Nc1nc2ncc(N3C[C@@H](C)OC[C@H]3C)nc2s1 [Example 409, 2′-chloro-N-(6-((2R,5R)-2,5-dimethylmorpholino)thiazolo [4,5-b]pyrazin-2-yl)-5′-methoxy-6-methyl-[4,4′-bipyridine]-3-carboxamide] | 0.001 to 0.1 | > 10
COc1cnc(Cl)cc1-c1cc(C)ncc1C(=O)Nc1nc2ncc(C3CCC(C)(C#N)CC3)nc2s1 (centres unmarked) [Example 410, 2′-chloro-N-(6-(4-cyano-4-methylcyclohexyl)thiazolo[4,5-b]pyrazin-2-yl)-5′-methoxy-6-methyl-[4,4′-bipyridine]-3-carboxamide] | 0.001 to 0.1 | > 10
COc1cnc(Cl)cc1-c1cc(C)ncc1C(=O)Nc1nc2ncc(N3C[C@H](C)OC[C@@H]3C)nc2s1 [Example 412, 2′-chloro-N-(6-((2S,5S)-2,5-dimethylmorpholino)thiazolo [4,5-b]pyrazin-2-yl)-5′-methoxy-6-methyl-[4,4′-bipyridine]-3-carboxamide] | 0.001 to 0.1 | > 10
COc1cnc(Cl)cc1-c1cc(C)ncc1C(=O)Nc1nc2ncc(C3=CCC(OC(F)(F)F)CC3)nc2s1 (centres unmarked) [Example 420, 2′-chloro-5′-methoxy-6-methyl-N-(6-(4-(trifluoromethoxy)cyclohex-1-en-1-yl)thiazolo[4,5-b]pyrazin-2-yl)-[4,4′-bipyridine]-3-carboxamide] | 0.001 to 0.1 | 7.5 to 10
COc1ccc(C#N)cc1-c1cc(C)ncc1C(=O)Nc1nc2ncc(C3=CCC(CO)CC3)nc2s1 (centres unmarked) [Example 421, 4-(5-cyano-2-methoxyphenyl)-N-(6-(4-(hydroxymethyl)cyclohex-1-en-1-yl)thiazolo[4,5-b]pyrazin-2-yl)-6-methylnicotinamide] | 0.001 to 0.1 | > 10
COc1cnc(Cl)cc1-c1cc(C)ncc1C(=O)Nc1nc2ncc(N3C[C@H](C)OC[C@H]3C)nc2s1 [Example 422, 2′-chloro-N-(6-((2S,5R)-2,5-dimethylmorpholino)thiazolo [4,5-b]pyrazin-2-yl)-5′-methoxy-6-methyl-[4,4′-bipyridine]-3-carboxamide] | 0.001 to 0.1 | > 10
COc1cnc(Cl)cc1-c1cc(C)ncc1C(=O)Nc1nc2ncc(N3CCOC4CCCC43)nc2s1 (centres unmarked) [Example 424, 2′-chloro-N-(6-(hexahydrocyclopenta[b][1, 4]oxazin-4(4aH)-yl)thiazolo[4,5-b]pyrazin-2-yl)-5′-methoxy-6-methyl-[4,4′-bipyridine]-3-carboxamide] | 0.001 to 0.1 | > 10
COc1cnc(Cl)cc1-c1cc(C)ncc1C(=O)Nc1nc2ncc(N3CCOC(C(F)F)C3)nc2s1 (centres unmarked) [Example 429, 2′-chloro-N-(6-(2-(difluoromethyl)morpholino)thiazolo[4,5-b]pyrazin-2-yl)-5′-methoxy-6-methyl-[4,4′-bipyridine]-3-carboxamide] | 0.001 to 0.1 | > 10
COc1cnc(Cl)cc1-c1cc(C)ncc1C(=O)Nc1nc2ncc(N3CCO[C@H](C(F)(F)F)C3)nc2s1 [Example 430, (S)-2′-chloro-5′-methoxy-6-methyl-N-(6-(2-(trifluoromethyl)morpholino)thiazolo[4,5-b]pyrazin-2-yl)-[4,4′-bipyridine]-3-carboxamide] | 0.001 to 0.1 | > 10
COc1cnc(Cl)cc1-c1cc(C)ncc1C(=O)Nc1nc2ncc(C3CCN(CC(F)(F)F)CC3)nc2s1 [Example 432, 2′-chloro-5′-methoxy-6-methyl-N-(6-(1-(2,2,2-trifluoroethyl)piperidin-4-yl)thiazolo[4,5-b]pyrazin-2-yl)-[4,4′-bipyridine]-3-carboxamide] | 0.001 to 0.1 | > 10
COc1cnc(Cl)cc1-c1cc(C)ncc1C(=O)Nc1nc2ncc([C@@H]3CCO[C@@H](C)C3)nc2s1 [Example 433, 2′-chloro-5′-methoxy-6-methyl-N-(6-((2S,4R)-2-methyltetrahydro-2H-pyran-4-yl)thiazolo[4,5-b]pyrazin-2-yl)-[4,4′-bipyridine]-3-carboxamide] | 0.001 to 0.1 | > 10
COc1cnc(Cl)cc1-c1cc(C)ncc1C(=O)Nc1nc2ncc(N3C[C@H](C)O[C@@H](C)C3)nc2s1 [Example 436, 2′-chloro-N-(6-((2S,6S)-2,6-dimethylmorpholino)thiazolo [4,5-b]pyrazin-2-yl)-5′-methoxy-6-methyl-[4,4′-bipyridine]-3-carboxamide] | 0.001 to 0.1 | > 10

Second part, the compound after the results:

IC50 [1] [µM] | IC50 [2] [µM] | SMILES
0.001 to 0.1 | > 10 | COc1cnc(Cl)cc1-c1cc(C)ncc1C(=O)Nc1nc2ncc(N3CCO[C@@H](C(F)(F)F)C3)nc2s1 [Example 440, (R)-2′-chloro-5′-methoxy-6-methyl-N-(6-(2-(trifluoromethyl)morpholino)thiazolo[4,5-b]pyrazin-2-yl)-[4,4′-bipyridine]-3-carboxamide]
0.001 to 0.1 | > 10 | COc1cnc(Cl)cc1-c1cc(C)ncc1C(=O)Nc1nc2ncc(C3=CCOC(C)C3)nc2s1 (centres unmarked) [Example 443, 2′-chloro-5′-methoxy-6-methyl-N-(6-(2-methyl-3,6-dihydro-2H-pyran-4-yl)thiazolo[4,5-b]pyrazin-2-yl)-[4,4′-bipyridine]-3-carboxamide]
0.001 to 0.1 | > 10 | COc1cnc(Cl)cc1-c1cc(C2CC2)ncc1C(=O)Nc1nc2ncc(-c3ccnc(C)c3)nc2s1 [Example 445, 2′-chloro-6-cyclopropyl-5′-methoxy-N-(6-(2-methylpyridin-4-yl)thiazolo[4,5-b]pyrazin-2-yl)-[4,4′-bipyridine]-3-carboxamide]
0.001 to 0.1 | > 10 | COc1cnc(Cl)cc1-c1cc(C)ncc1C(=O)Nc1nc2ncc(-c3cccc(C(F)F)n3)nc2s1 [Example 446, 2′-chloro-N-(6-(6-(difluoromethyl)pyridin-2-yl)thiazolo[4,5-b]pyrazin-2-yl)-5′-methoxy-6-methyl-[4,4′-bipyridine]-3-carboxamide]
0.001 to 0.1 | > 10 | COc1cnc(Cl)cc1-c1cc(C)ncc1C(=O)Nc1nc2ncc(N3CC[C@H](OC)[C@@H](F)C3)nc2s1 [Example 452, 2′-chloro-N-(6-((3S,4S)-3-fluoro-4-methoxypiperidin-1-yl)thiazolo[4,5-b]pyrazin-2-yl)-5′-methoxy-6-methyl-[4,4′-bipyridine]-3-carboxamide]
0.001 to 0.1 | > 10 | CNC1CCN(c2cnc3nc(NC(=O)c4cnc(C)cc4-c4cc(Cl)ncc4OC)sc3n2)CC1(F)F (centres unmarked) [Example 455, 2′-chloro-N-(6-(3,3-difluoro-4-(methylamino)piperidin-1-yl)thiazolo[4,5-b]pyrazin-2-yl)-5′-methoxy-6-methyl-[4,4′-bipyridine]-3-carboxamide]
0.001 to 0.1 | > 10 | COc1cnc(Cl)cc1-c1cc(C)ncc1C(=O)Nc1nc2ncc(N3CCC4(CCCO4)CC3)nc2s1 [Example 459, N-(6-(1-oxa-8-azaspiro[4.5]decan-8-yl)thiazolo[4,5-b]pyrazin-2-yl)-2′-chloro-5′-methoxy-6-methyl-[4,4′-bipyridine]-3-carboxamide]
0.001 to 0.1 | > 10 | COc1cnc(Cl)cc1-c1cc(C)ncc1C(=O)Nc1nc2ncc(N3CCC(OC4CC4)CC3)nc2s1 [Example 462, 2′-chloro-N-(6-(4-cyclopropoxypiperidin-1-yl)thiazolo[4,5-b]pyrazin-2-yl)-5′-methoxy-6-methyl-[4,4′-bipyridine]-3-carboxamide]
0.001 to 0.1 | > 10 | COc1cnc(Cl)cc1-c1cc(C)ncc1C(=O)Nc1nc2ncc(N3CCC(C4COC4)CC3)nc2s1 [Example 464, 2′-chloro-5′-methoxy-6-methyl-N-(6-(4-(oxetan-3-yl)piperidin-1-yl)thiazolo[4,5-b]pyrazin-2-yl)-[4,4′-bipyridine]-3-carboxamide]
